Assay results published in paper PMC6264278, “Corydaline Inhibits Multiple Cytochrome P450 and UDP-Glucuronosyltransferase Enzyme Activities in Human Liver Microsomes” (Molecules, 2011).

Biological target: T1, CYP1A2 (Homo sapiens, UniProt P05177)
T1 construct: using pooled human liver microsomes; tissue BD Gentest Co. H161; host or cells: pooled human liver microsomes
T1 sequence (P05177 1-516): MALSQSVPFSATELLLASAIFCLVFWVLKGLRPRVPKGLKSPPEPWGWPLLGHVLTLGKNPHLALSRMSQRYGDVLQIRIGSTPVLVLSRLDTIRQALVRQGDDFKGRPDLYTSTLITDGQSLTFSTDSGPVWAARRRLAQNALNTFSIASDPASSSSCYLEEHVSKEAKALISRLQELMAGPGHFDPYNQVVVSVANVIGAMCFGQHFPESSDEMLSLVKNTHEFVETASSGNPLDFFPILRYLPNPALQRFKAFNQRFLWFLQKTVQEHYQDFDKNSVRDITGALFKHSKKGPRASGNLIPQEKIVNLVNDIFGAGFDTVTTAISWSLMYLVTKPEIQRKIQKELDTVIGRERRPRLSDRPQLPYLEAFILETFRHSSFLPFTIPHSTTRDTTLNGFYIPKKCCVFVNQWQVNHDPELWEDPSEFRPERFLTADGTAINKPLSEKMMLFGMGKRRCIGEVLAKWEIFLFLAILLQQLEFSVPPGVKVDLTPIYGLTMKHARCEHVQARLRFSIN
Assay: CYP1A2 phenacetin O-deethylation inhibition, cocktail assay in pooled human liver microsomes
Assay type: in vitro ADME
Conditions: 50 μM phenacetin, no inhibition at 200 μM of corydaline; for IC50 no preincubation, CYP1A2 phenacetin O-deethylation: pooled human liver microsomes (H161)
Method: Phenacetin O-deethylase, coumarin 7-hydroxylase, amodiaquine N-deethylase, diclofenac 4-hydroxylase, S-mephenytoin 4-hydroxylase, bufuralol hydroxylase, and midazolam 1’-hydroxylase activities were determined as probe activities for CYP1A2, CYP2A6, CYP2C8, CYP2C9, CYP2C19, CYP2D6, and CYP3A4, respectively, using cocktail incubation and liquid chromatography-tandem mass spectrometry (LC/MS/MS). The incubation mixtures were prepared in a total volume of 200 μL, as follows: pooled human liver microsomes (0.25 mg/mL), 1.3 mM NADPH, 3.3 mM MgCl2, 50 mM potassium phosphate buffer (pH 7.4), and a cocktail of probe substrates and various concentrations of corydaline (1−200 μM). The substrates were used at concentrations approximately equal to their respective Km values: 50 μM phenacetin, 2.5 μM coumarin, 2.5 μM amodiaquine, 10 μM diclofenac, 100 μM S-mephenytoin, 5 μM bufuralol, and 2.5 μM midazolam. After a 3-min pre-incubation period at 37 °C, the reactions were initiated by addition of an NADP generating system and incubated for 20 min at 37 °C in a shaking water bath. After incubation, the reaction was stopped by placement of the tubes on ice and addition of 100 μL of ice-cold methanol containing internal standards (^13C2,^15N-acetaminophen for acetaminophen and N-desethylamodiaquine, d5-7-hydroxycoumarin for 7-hydroxycoumarin, ^13C6-4-hydroxydiclofenac for 4-hydroxydiclofenac, d3-4-hydroxy-mephenytoin for 4-hydroxymephenytoin and hydroxymidazolam, d9-1-hydroxybufuralol for 1-hydroxybufuralol). The incubation mixtures were then centrifuged at 13,000 × g for 5 min. All incubations were performed in triplicate and the mean values were used. […] The reaction was started by addition of a cocktail of CYP probe substrates.
All 7 metabolites produced from the cocktail of CYP isoform-specific substrates were simultaneously determined by LC/MS/MS [25]. […] Quantification was performed by selected reaction monitoring (SRM) of the [M+H]^+ ion and the related product ion for each metabolite. […]

- IC50 no preincubation, CYP1A2 phenacetin O-deethylation: negligible inhibition
- IC50 no preincubation, CYP1A2 phenacetin O-deethylation (listed as corydaline): No inhibition **
- IC50 with preincubation, CYP1A2 phenacetin O-deethylation (pre-incubated 30 min with NADPH): No inhibition **
Compound: COc1cc2c(cc1OC)C1C(C)c3ccc(OC)c(OC)c3CN1CC2 (stereo not drawn) [Corydaline, 2,3,9,10-tetramethoxy-13-methyl-5,8,13,13a-tetrahydro-6H-isoquino[3,2-a]isoquinoline]
